Measured values taken from paper PMC6065317, “Rice Defensin OsAFP1 is a New Drug Candidate against Human Pathogenic Fungi” (Scientific Reports, 2018).
Where no end group is shown, it is not given here.

Columns and labels:
Experiment in all cases: Antibacterial assay (BacTiter-Glo ATP luminescence)
Format in all cases: cell-based
[1] = system: Escherichia coli K-12; details: E. coli K-12; LB broth, 37 °C; 0–32 μM; MIC = >99% reduction of ATP luminescence
Method: (§1) Seven microbial strains were used for OsAFP1 antimicrobial activity testing. P. gingivalis ATCC 33277 cells were cultured in modified Gifu anaerobic medium (GAM) (Nissui, Tokyo, Japan) in an anaerobic jar (Mitsubishi Gas Chemical, Tokyo, Japan) in the presence of a deoxygenating regent (AnaeroPack, Mitsubishi Gas Chemical) for 48 h at 37 °C. E. coli K-12 NBRC3301, S. mutans JCM 5705, S. aureus NBRC 12732, and P. acnes JCM 6473 cells were cultured in Luria-Bertani (LB) broth, brain-heart infusion broth (Nissui), trypticase soy broth (BD Biosciences, Franklin Lakes, NJ, USA), and GAM broth (Nissui), respectively, under facultative anaerobic conditions for 4–24 h at 37 °C. C. albicans CAI4 (IFM 61937) cells were cultured in 0.5 × potato dextrose broth (PDB) supplemented with 25 μg/ml of uridine under facultative anaerobic conditions for 14 h at 30 °C. S. cerevisiae BY4742 and S288C cells were cultured in 0.5 × PDB supplemented with 30 μg/ml of uridine, histidine, and lysine and 60 μg/ml of leucine under facultative anaerobic conditions for 14 h at 27 °C. These microbial strains were purchased from the American Type Culture Collection (Manassas, VA, USA), National Institute of Technology and Evaluation (Tokyo, Japan), RIKEN BioResource Center (Tsukuba, Japan), Medical Mycology Research Center (Chiba, Japan), and GE Healthcare (Little Chalfont, UK).
(§2) Recombinant OsAFP1 and its mutants used in this study were prepared as described in “Supplementary Information”. Antibacterial assays to determine the MIC of OsAFP1 were performed using a modified BacTiter-Glo Luminescent cell viability assay kit (Promega, Madison, WI, USA). This assay quantifies ATP in bacterial cultures to determine the number of live cells. All procedures were performed following the manufacturer’s instructions. Briefly, bacterial cells (1 × 10^4 cells/ml) were cultured in 100 μl of the appropriate medium (as specified in the “Microorganisms and culture conditions” section) in the presence of 0–32 μM OsAFP1 in 96-well Costar cell culture plates. After appropriate incubation for 4–40 h, 10 μl of Lucifell ATP-eliminating reagent (Kikkoman, Chiba, Japan) was added to each well to reduce medium-derived ATP and mixed for 10 min using an orbital shaker. The cell culture (50 μl) was mixed gently with BacTiter-Glo reagent (50 μl) in a well of white Optiplate-96 plates. After incubation for 15 s, luminescence at 560 nm was measured using a plate reader. MIC was defined as the minimum concentration of OsAFP1 that reduced the sample ATP luminescence by >99% compared with that of the control culture. Experiments were independently repeated at least three times.

[2] = system: Porphyromonas gingivalis ATCC 33277; details: P. gingivalis ATCC 33277; modified GAM, anaerobic, 37 °C; 0–32 μM; MIC = >99% reduction of ATP luminescence
Method: as §1, §2

[3] = system: Propionibacterium acnes JCM 6473; details: P. acnes JCM 6473; GAM broth, 37 °C; 0–32 μM; MIC = >99% reduction of ATP luminescence
Method: as §1, §2

[4] = system: Staphylococcus aureus subsp. aureus NBRC 12732; details: S. aureus NBRC 12732; trypticase soy broth, 37 °C; 0–32 μM; MIC = >99% reduction of ATP luminescence
Method: as §1, §2

[5] = system: Streptococcus mutans JCM 5705; details: S. mutans JCM 5705; brain-heart infusion broth, 37 °C; 0–32 μM; MIC = >99% reduction of ATP luminescence
Method: as §1, §2

Measured: MIC

OsAFP1: rice defensin (Os02g41904, UniProtKB Q6K209); recombinant mature peptide produced in E. coli, four disulphide bonds (RHCLSQSHRFKGMCVSSNNCANVCRTESFPDGECKSHGLERKCFCKKVC; disulfide (positions not given here); UniProt Q6K209 32-80, looked up)
>32 µM: all assays above
